Structures can show the parent of a compound that is named as a salt.

The target of experiment [1] is T1, Recombinant human IKKβ (residues 1-737) (Homo sapiens, UniProt O14920).
T1 construct: Recombinant human IKKβ (residues 1-737); GST (C); made in house
T1 sequence (O14920 1-737): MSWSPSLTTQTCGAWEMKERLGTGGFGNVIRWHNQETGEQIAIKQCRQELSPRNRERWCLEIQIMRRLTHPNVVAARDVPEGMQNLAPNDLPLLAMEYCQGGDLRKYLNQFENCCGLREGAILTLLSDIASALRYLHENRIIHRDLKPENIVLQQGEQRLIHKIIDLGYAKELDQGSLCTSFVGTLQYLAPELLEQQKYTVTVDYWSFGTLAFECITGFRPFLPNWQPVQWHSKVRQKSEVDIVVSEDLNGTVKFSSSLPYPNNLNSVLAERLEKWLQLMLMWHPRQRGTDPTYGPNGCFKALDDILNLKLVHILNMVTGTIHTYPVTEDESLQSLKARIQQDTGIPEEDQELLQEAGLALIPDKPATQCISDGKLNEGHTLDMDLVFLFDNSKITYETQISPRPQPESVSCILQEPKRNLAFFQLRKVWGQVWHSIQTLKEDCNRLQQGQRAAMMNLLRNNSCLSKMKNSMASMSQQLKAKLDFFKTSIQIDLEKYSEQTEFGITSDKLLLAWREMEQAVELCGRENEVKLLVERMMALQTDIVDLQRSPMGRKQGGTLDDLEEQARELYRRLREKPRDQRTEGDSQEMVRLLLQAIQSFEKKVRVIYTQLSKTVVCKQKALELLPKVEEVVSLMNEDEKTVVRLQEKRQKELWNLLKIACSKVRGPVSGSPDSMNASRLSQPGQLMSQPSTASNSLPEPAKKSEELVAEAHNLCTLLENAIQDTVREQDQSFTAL
The experiment can be described thus: IKK2 assay (TR-FRET). The format is biochemical. Particulars: ATP 1 μM final, read-out: pIC50 against IKK2 (converted). The procedure, abridged: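 TR-FRET readout (665 nm over 620 nm Eu reference) of GST-IB Ser32/36 phosphorylation after 60 min detection. Reaction: 1 μM ATP, 25 nM substrate, 0.5-5 nM GST-fused IKKβ 1-737 from baculovirus, pH 7.4 HEPES buffer, 1.7% DMSO, 15 min room temperature, EDTA-terminated.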
For orientation: In TR-FRET formats the signal depends on donor and acceptor labels being close together.

Experiment [2] has as its system human monocyte stimulated cytokine production (TNF-α). Description: Monocyte assay (LPS-stimulated TNF-α production). The format is cell-based. As to conditions: for inhibition at 0.3 µM: read-out: inhibition at 300 nM in the monocyte assay; for IC50: 24 h, 200 ng/mL LPS, TNF-α by ELISA. The gist of the method:
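TNF-α release was measured by ELISA after 24 hrs at 37 C. Cells were stimulated with 200 ng/mL E. coli LPS, with compound added 30 minutes beforehand (0.1% DMSO vehicle). Cells were Ficoll/MACS-isolated CD14+ human monocytes adhered at 1×10^6 cells/mL, and viability was checked by trypan blue.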
In general terms: ELISA stands for enzyme-linked immunosorbent assay.

Turning to `CCS(=O)(=O)N1CCC(c2c[nH]c3c(C(N)=O)cc(-c4cncc(CN5CCCC5C)c4)cc23)CC1` (stereo not shown) [Example 179, 3-[1-(ethylsulfonyl)-4-piperidinyl]-5-{5-[(2-methyl-1-pyrrolidinyl)methyl]-3-pyridinyl}-1H-indole-7-carboxamide], in experiment [1], the IC50 is at most 10 µM. In experiment [2], the inhibition at 0.3 µM is 0 to 60%.
With `CCS(=O)(=O)N1CCC(c2c[nH]c3c(C(N)=O)cc(-c4cncc(CNCC(C)C)c4)cc23)CC1` [Example 180, 3-[1-(ethylsulfonyl)-4-piperidinyl]-5-(5-{[(2-methylpropyl)amino]methyl}-3-pyridinyl)-1H-indole-7-carboxamide], the IC50 in experiment [1] is at most 10 µM. Moreover, in experiment [2], the inhibition at 0.3 µM lay in the range of 0 to 60%.
With `CCS(=O)(=O)N1CCC(c2c[nH]c3c(C(N)=O)cc(-c4cncc(CNCC(C)(C)C)c4)cc23)CC1` [Example 181, 5-(5-{[(2,2-dimethylpropyl)amino]methyl}-3-pyridinyl)-3-[1-(ethylsulfonyl)-4-piperidinyl]-1H-indole-7-carboxamide], the IC50 in experiment [1] is at most 10 µM. Further, the inhibition at 0.3 µM in experiment [2] lay in the range of 0 to 60%.
Regarding `CCC(C)CNCc1ccc(-c2cc(C(N)=O)c3[nH]cc(C4CCN(S(=O)(=O)CC)CC4)c3c2)s1` (stereo not shown) [Example 182, 3-[1-(ethylsulfonyl)-4-piperidinyl]-5-(5-{[(2-methylbutyl)amino]methyl}-2-thienyl)-1H-indole-7-carboxamide], the results for the IC50 in experiment [1] and in experiment [2] were at most 10 µM and at most 1.5 µM, respectively.
As for `CCCCCNCc1ccc(-c2cc(C(N)=O)c3[nH]cc(C4CCN(S(=O)(=O)CC)CC4)c3c2)s1` [Example 184, 3-[1-(ethylsulfonyl)-4-piperidinyl]-5-{5-[(pentylamino)methyl]-2-thienyl}-1H-indole-7-carboxamide], in experiment [1], the IC50 was at most 10 µM. In experiment [2], the inhibition at 0.3 µM was 0 to 60%.
Turning to `CC[C@H](C)CNCc1ccc(-c2cc(C(N)=O)c3[nH]cc(C4CCN(S(=O)(=O)CC)CC4)c3c2)s1` [Example 185, 3-[1-(ethylsulfonyl)-4-piperidinyl]-5-[5-({[(2S)-2-methylbutyl]amino}methyl)-2-thienyl]-1H-indole-7-carboxamide], the IC50 in experiment [1] is at most 10 µM. The inhibition at 0.3 µM in experiment [2] lay within 0 to 60%.
As to `CCCC(C)NCc1ccc(-c2cc(C(N)=O)c3[nH]cc(C4CCN(S(=O)(=O)CC)CC4)c3c2)s1` (stereo not shown) [Example 186, 3-[1-(ethylsulfonyl)-4-piperidinyl]-5-(5-{[(1-methylbutyl)amino]methyl}-2-thienyl)-1H-indole-7-carboxamide], the IC50 in experiment [1] is at most 10 µM. The inhibition at 0.3 µM in experiment [2] was in the range of 0 to 60%.
Turning to `CCCCNCc1ccc(-c2cc(C(N)=O)c3[nH]cc(C4CCN(S(=O)(=O)CC)CC4)c3c2)s1` [Example 187, 5-{5-[(butylamino)methyl]-2-thienyl}-3-[1-(ethylsulfonyl)-4-piperidinyl]-1H-indole-7-carboxamide], the IC50 in experiment [1] is at most 10 µM. The inhibition at 0.3 µM in experiment [2] was 0 to 60%.
Consider `CCS(=O)(=O)N1CCC(c2c[nH]c3c(C(N)=O)cc(-c4ccc(CNCCOC)s4)cc23)CC1` [Example 188, 3-[1-(ethylsulfonyl)-4-piperidinyl]-5-[5-({[2-(methyloxy)ethyl]amino}methyl)-2-thienyl]-1H-indole-7-carboxamide], for which the IC50 in experiment [1] is at most 10 µM. Moreover, the inhibition at 0.3 µM in experiment [2] was in the range of 0 to 60%.
Take `CCS(=O)(=O)N1CCC(c2c[nH]c3c(C(N)=O)cc(-c4ccc(CNC5CCCC5)s4)cc23)CC1` [Example 189, 5-{5-[(cyclopentylamino)methyl]-2-thienyl}-3-[1-(ethylsulfonyl)-4-piperidinyl]-1H-indole-7-carboxamide]: in experiment [1], the IC50 was at most 10 µM. Besides, the inhibition at 0.3 µM in experiment [2] lay in the range of 0 to 60%.
For `CCS(=O)(=O)N1CCC(c2c[nH]c3c(C(N)=O)cc(-c4ccc(CNCCC(C)C)s4)cc23)CC1` [Example 190, 3-[1-(ethylsulfonyl)-4-piperidinyl]-5-(5-{[(3-methylbutyl)amino]methyl}-2-thienyl)-1H-indole-7-carboxamide] the same measures were at most 10 µM and 0 to 60%.
As for `CCS(=O)(=O)N1CCC(c2c[nH]c3c(C(N)=O)cc(-c4cncc(CNC(C)C)c4)cc23)CC1` [Example 191, 3-[1-(ethylsulfonyl)-4-piperidinyl]-5-(5-{[(1-methylethyl)amino]methyl}-3-pyridinyl)-1H-indole-7-carboxamide], the IC50 in experiment [1] is at most 10 µM; in experiment [2] it was at most 1.5 µM.
For `CCC(CC)CNCc1ccc(-c2cc(C(N)=O)c3[nH]cc(C4CCN(S(=O)(=O)CC)CC4)c3c2)s1` [Example 192, 5-(5-{[(2-ethylbutyl)amino]methyl}-2-thienyl)-3-[1-(ethylsulfonyl)-4-piperidinyl]-1H-indole-7-carboxamide], the results for the IC50 in experiment [1] and in experiment [2] were at most 10 µM and above 1 µM, respectively.
In the case of `CCOCCCNCc1ccc(-c2cc(C(N)=O)c3[nH]cc(C4CCN(S(=O)(=O)CC)CC4)c3c2)s1` [Example 193, 5-[5-({[3-(ethyloxy)propyl]amino}methyl)-2-thienyl]-3-[1-(ethylsulfonyl)-4-piperidinyl]-1H-indole-7-carboxamide], the IC50 is at most 10 µM in experiment [1] and above 1 µM in experiment [2].
For the molecule `CCS(=O)(=O)N1CCC(c2c[nH]c3c(C(N)=O)cc(-c4ccc(CNCCCOC)s4)cc23)CC1` [Example 194, 3-[1-(ethylsulfonyl)-4-piperidinyl]-5-[5-({[3-(methyloxy)propyl]amino}methyl)-2-thienyl]-1H-indole-7-carboxamide], the figures for the IC50 in experiment [1] and in experiment [2] were at most 10 µM and above 1 µM, respectively.
In the case of `CCS(=O)(=O)N1CCC(c2c[nH]c3c(C(N)=O)cc(-c4ccc(CNCC5CCCCC5)s4)cc23)CC1` [Example 195, 5-(5-{[(cyclohexylmethyl)amino]methyl}-2-thienyl)-3-[1-(ethylsulfonyl)-4-piperidinyl]-1H-indole-7-carboxamide], in experiment [1], the IC50 is at most 10 µM. In addition, in experiment [2], the inhibition at 0.3 µM lay in the range of 0 to 60%.
For the molecule `CCS(=O)(=O)N1CCC(c2c[nH]c3c(C(N)=O)cc(-c4ccc(CNCCCOC(C)C)s4)cc23)CC1` [Example 196, 3-[1-(ethylsulfonyl)-4-piperidinyl]-5-{5-[({3-[(1-methylethyl)oxy]propyl}amino)methyl]-2-thienyl}-1H-indole-7-carboxamide], the values for the IC50 in experiment [1] and in experiment [2] were at most 10 µM and above 1 µM, respectively.
Take `CCOCCNCc1ccc(-c2cc(C(N)=O)c3[nH]cc(C4CCN(S(=O)(=O)CC)CC4)c3c2)s1` [Example 197, 5-[5-({[2-(ethyloxy)ethyl]amino}methyl)-2-thienyl]-3-[1-(ethylsulfonyl)-4-piperidinyl]-1H-indole-7-carboxamide]: the results for the IC50 in experiment [1] and in experiment [2] were at most 10 µM and above 1 µM, respectively.
Take `CCS(=O)(=O)N1CCC(c2c[nH]c3c(C(N)=O)cc(-c4ccc(CN[C@@H](C)C(C)(C)C)s4)cc23)CC1` [Example 200, 3-[1-(ethylsulfonyl)-4-piperidinyl]-5-[5-({[(1S)-1,2,2-trimethylpropyl]amino}methyl)-2-thienyl]-1H-indole-7-carboxamide]: the IC50 in experiment [1] is at most 10 µM; in experiment [2], above 1 µM.
For `CCCCCCNCc1ccc(-c2cc(C(N)=O)c3[nH]cc(C4CCN(S(=O)(=O)CC)CC4)c3c2)s1` [Example 201, 3-[1-(ethylsulfonyl)-4-piperidinyl]-5-{5-[(hexylamino)methyl]-2-thienyl}-1H-indole-7-carboxamide] the same measures were at most 10 µM and above 1 µM.
For `CCS(=O)(=O)N1CCC(c2c[nH]c3c(C(N)=O)cc(-c4ccnc(N(C)C)c4)cc23)CC1` [Example 202, 5-[2-(dimethylamino)-4-pyridinyl]-3-[1-(ethylsulfonyl)-4-piperidinyl]-1H-indole-7-carboxamide trifluoroacetate], the IC50 is at most 10 µM in experiment [1] and above 1 µM in experiment [2].
On to `CCS(=O)(=O)N1CCC(c2c[nH]c3c(C(N)=O)cc(-c4ccnc(N5CCCC5)c4)cc23)CC1` [Example 203, trifluoroacetate], for which the values for the IC50 in experiment [1] and in experiment [2] were at most 10 µM and above 1 µM, respectively.
For the molecule `CCS(=O)(=O)N1CCC(c2c[nH]c3c(C(N)=O)cc(-c4ccnc(N5CCOCC5)c4)cc23)CC1` [Example 204, 3-[1-(ethylsulfonyl)-4-piperidinyl]-5-[2-(4-morpholinyl)-4-pyridinyl]-1H-indole-7-carboxamide trifluoroacetate], the figures for the IC50 in experiment [1] and in experiment [2] were at most 10 µM and above 1 µM, respectively.

Broadly, the inhibition is how much of the control response was suppressed.

(Values after US8063071B2 (GlaxoSmithKline, LLC, priority 2007, dated 2011).)
